Assay results as given in ChEMBL document CHEMBL4376877, “Stepwise Evolution of Fragment Hits against MAPK Interacting Kinases 1 and 2” (J Med Chem, 2020).
≈ marks a conversion by molar mass, not a printed value.

Columns and labels:
[1] = Thermodynamic solubility of compound at pH 7.4; type: physicochemical; conditions: buffer, read-out: Therm_solubility
[2] = Permeability across apical side to basolateral side of membrane in human Caco2 cells; type: ADME, cell-based; conditions: Caco-2, read-out: permeability
[3] = Permeability across basolateral side to apical side of membrane in human Caco2 cells; type: ADME, cell-based; conditions: Caco-2, read-out: permeability
[4] = Clearance in mouse liver microsomes; type: ADME, Microsome; conditions: read-out: CLH
[5] = Initial plasma concentration in mouse at 1 mg/kg, iv; type: ADME, organism-based
[6] = Clearance in human liver microsomes; type: ADME, Microsome; conditions: read-out: CLH
[7] = Terminal elimination half life in mouse at 1 mg/kg, iv; type: ADME, organism-based; conditions: in vivo, read-out: beta t1/2 (converted)
[8] = Clearance in mouse at 1 mg/kg, iv; type: ADME, organism-based; conditions: in vivo
[9] = Apparent volume of distribution in mouse at 1 mg/kg, iv; type: ADME, organism-based; conditions: in vivo, read-out: Vz
[10] = AUC (0 to 8 hrs) in mouse at 1 mg/kg, iv measured up to 8 hrs; type: ADME, organism-based; design: time < 8 hr, dose 1 mg/kg, route intravenous; conditions: in vivo
[11] = AUC (0 to infinity) in mouse at 1 mg/kg, iv; type: ADME, organism-based; design: dose 1 mg/kg, time infinity, route intravenous; conditions: in vivo
[12] = Cmax in mouse at 5 mg/kg, po measured after 10 mins; type: ADME, organism-based; design: dose 5 mg/kg, route oral; conditions: in vivo
[13] = Tmax in mouse at 5 mg/kg, po; type: ADME, organism-based; conditions: in vivo
[14] = Terminal elimination half-life in mouse at 5 mg/kg, po; type: ADME, organism-based; conditions: in vivo, read-out: beta t1/2 (converted)
[15] = Clearance in mouse at 5 mg/kg, po; type: ADME, organism-based; conditions: in vivo
[16] = Apparent volume of distribution in mouse at 5 mg/kg, po; type: ADME, organism-based; conditions: in vivo
[17] = AUC (0 to 8 hrs) in mouse at 5 mg/kg, po measured up to 8 hrs; type: ADME, organism-based; design: dose 5 mg/kg, time < 8 hr, route oral; conditions: in vivo
[18] = AUC (0 to infinity) in mouse at 5 mg/kg, po; type: ADME, organism-based; design: dose 5 mg/kg, route oral, time infinity; conditions: in vivo
[19] = Oral bioavailability in mouse at 5 mg/kg; type: ADME, organism-based; conditions: in vivo
[20] = Cmax in mouse at 5 mg/kg, po measured after 0.5 hrs; type: ADME, organism-based; design: dose 5 mg/kg, route oral; conditions: in vivo

Compound	solubility thermodynamic [1] [mg/mL]	Papp A→B [2] [nm/s]	Papp B→A [3] [nm/s]	microsomal CLint [4] [µL/min/mg]	C0 [5] [µg/mL]	microsomal CLint [6] [µL/min/mg]	half-life [7] [h]	clearance [8] [L/h/kg]	Vd [9] [L/kg]	AUC(0-t) at 8 h [10] [µg·h/mL]	AUC(0-inf) [11] [µg·h/mL]	Cmax [12] [µg/mL]	Tmax [13] [h]	half-life [14] [h]	CL/F [15] [L/h/kg]	Vz [16] [L/kg]	AUC(0-t) at 8 h [17] [µg·h/mL]	AUC(0-inf) [18] [µg·h/mL]	bioavailability [19] [%]	Cmax [20] [µg/mL]
Cc1n[nH]c(C)c1-c1cncc(-c2ccc(C(N)=O)c(OC(C)C)c2)c1	0.01 (≈ 28.5 µM)	62	410	62	–	–	–	–	–	–	–	–	–	–	–	–	–	–	–	–
CC(C)Oc1cc(-c2cccnc2)ccc1C(N)=O	0.045 (≈ 176 µM)	320	200	9.4	0.678	5.8	3.4	6	30	0.16	0.166	0.615	0.17	1.6	10.1	23	0.488	0.494	61	–
Cc1[nH]ncc1-c1cncc(-c2ccc(C(N)=O)c(OC(C)C)c2)c1	0.011 (≈ 32.7 µM)	83	330	251	–	18	–	–	–	–	–	–	–	–	–	–	–	–	–	–
Cc1c(-c2cncc(-c3ccc(C(N)=O)c(OC(C)C)c3)c2)cnn1C	0.0073 (≈ 20.8 µM)	270	210	25.1	–	7.9	–	–	–	–	–	–	–	–	–	–	–	–	–	–
CC(C)Oc1cc(-c2cncc(-c3cnn(C4COC4)c3)c2)ccc1C(N)=O	0.028 (≈ 74 µM)	100	250	3.1	–	< 10	2.2	1.7	5.5	0.568	0.579	–	0.5	2.8	2.1	8.7	2.08	2.36	73	0.658
